The subject of assay [1] is primary CD123+ AML cells from patients with relapsed/refractory disease. Nature of the assay: Short-term culture of primary relapsed/refractory AML patient samples. The format is cell-based, human. The following applies: single agent, in vitro. Here is the method: (§1) CD123 expression on human AML cell lines (HEL, HL60, MV411, Molm13, EOL-1, THP-1, and Kasumi-1) was quantified by flow cytometry using QuantriBrite beads. AML cells were continuously cultured for 72-96 hours with varying doses of IMGN632 (range 100 pM-100 nM) and specific PARP inhibitors (range 100 pM-15 μM) alone and in combination. Cell viability was measured using a WST-8 colorimetric assay. Primary clinically annotated CD123+AML cells from patients with relapsed/refractory disease were obtained under IRB-approved protocols from the Roswell Park (Buffalo, N.Y.) Hematologic Procurement Shared Resource and cultured short-term in the presence of multiple cytokines plus IMGN632+/−PARP inhibitors. Apoptosis (Annexin V/PI), cell cycle, and DNA damage (H2AX) were evaluated by flow cytometry. Additive vs. synergistic effects were determined by combination indices using Compusyn software. PARP trapping was evaluated by Western blot analysis in nuclear lysates obtained from IMGN632+/−PARP inhibitors treated AML cells.

In assay [2] the test system is human AML cell lines. In words: AML cell line viability, WST-8 colorimetric assay. The format is cell-based. As to conditions: 120 h, continuous single agent 5-day treatment, read-out: IC50, in vitro inhibition of AML cell line growth. Here is the method: as §1, with “AML cells were continuously cultured for 72-96 hours with varying doses of IMGN632 (range 100 pM-100 nM) and specific PARP inhibitors (range 100 pM-15 μM) alone and in combination.” left out
Background: Tetrazolium dyes change colour on reduction, which living cells bring about.

The subject of assay [3] is preclinical AML models. As to conditions: Portwood S et al, ASH 2016; cited from earlier work.

By IC50 is commonly meant the concentration at which inhibition is half-maximal. Turning to `Cn1ncnc1[C@H]1c2n[nH]c(=O)c3cc(F)cc(c23)N[C@@H]1c1ccc(F)cc1` [talazoparib], the “activity against primary relapsed/refractory AML patient samples” value in assay [1] is recorded as “single agent activity”. The 50% inhibitory concentration (IC50) in assay [2] was 0.36 µM.
For the molecule `O=C(c1cc(Cc2n[nH]c(=O)c3ccccc23)ccc1F)N1CCN(C(=O)C2CC2)CC1` [olaparib], the “activity against primary relapsed/refractory AML patient samples” value in assay [1] is listed as “single agent activity”. For the same molecule, the “effect on activity of the CD33-targeted ADC IMGN779” value in assay [3] is “synergistically enhance”.
As for IMGN632, the “activity against primary relapsed/refractory AML patient samples” value in assay [1] is “single agent activity”.
As to `C[C@]1(c2nc3c(C(N)=O)cccc3[nH]2)CCCN1` [veliparib], in assay [2], the IC50 turned out to be 78 µM.

These data come from US20210393791A1, “COMBINATION TREATMENT WITH ANTI-CD123 ANTIBODY DRUG CONJUGATE AND PARP INHIBITOR” (Health Research, Inc., priority 2018, published 2021).
